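Tested at 5 concentrations; 48 h exposure; 96-well plates; endpoints linearly interpolated, else capped at highest concentration. Definition used: TGI = concentration required for complete inhibition of growth.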

TGI data for seven compounds are collected here from PubChem BioAssay (NCI).

Some test systems named below: OVCAR-4 ovarian; LOX IMVI melanoma; K-562 leukemia; SR leukemia; TK-10 renal; PC-3 prostate; SK-OV-3 ovarian; MCF7 breast; UO-31 renal; HOP-62 NSCLC; HCT-116 colon; HCT-15 colon; IGROV1 ovarian; COLO 205 colon; HCC-2998 colon; A549 NSCLC; CAKI-1 renal; MOLT-4 leukemia; MALME-3M melanoma; UACC-62 melanoma.
Common to all, as to experiment: NCI anticancer screen, dose series, 48 h

Turning to `COc1cc2cc(C(=O)Nc3cc4n(n3)-c3ccccc3C4)[nH]c2c(OC)c1OC`, the TGI in the assay on OVCAR-4 ovarian came to 6.16 µM; in the assay with LOX IMVI melanoma, 12.7 µM; in the assay on K-562 leukemia, 14.9 µM; in the assay on SR leukemia, 11.5 µM; in the assay with TK-10 renal, 9.27 µM; in the assay with PC-3 prostate, 10.4 µM. In addition, the TGI in the assay with SK-OV-3 ovarian came to 19.4 µM; with MCF7 breast, 14.1 µM; in the assay with UO-31 renal it was 6.8 µM; in the assay on HOP-62 NSCLC, 6.43 µM; in the assay on HCT-116 colon it was 9.65 µM; in the assay with HCT-15 colon it was 9.61 µM. Also, the TGI with IGROV1 ovarian came out at 9.79 µM; in the assay on COLO 205 colon, 9.45 µM; in the assay on HCC-2998 colon, 21 µM; in the assay with A549 NSCLC it was 7.63 µM; in the assay with CAKI-1 renal, 6.3 µM; in the assay with MOLT-4 leukemia, 2.2 µM. The compound further gave a TGI with MALME-3M melanoma of 6.43 µM.
With `CC1=NC2c3c(-c4ccc(Cl)cc4)cn(-c4ccc(C)cc4)c3N=CN2N1` (centres undefined), the TGI with OVCAR-4 ovarian was 33.3 µM; with LOX IMVI melanoma it was > 100 µM; in the assay with K-562 leukemia, > 100 µM; in the assay on SR leukemia, > 100 µM; in the assay on TK-10 renal, > 100 µM; in the assay with PC-3 prostate it was > 100 µM. Besides, the TGI in the assay with SK-OV-3 ovarian, in the assay with MCF7 breast, with UO-31 renal, with HOP-62 NSCLC, in the assay on HCT-116 colon and in the assay with HCT-15 colon was > 100 µM in each case. Further, the TGI in the assay with IGROV1 ovarian, in the assay on UACC-62 melanoma, with COLO 205 colon, with HCC-2998 colon, with A549 NSCLC and in the assay with CAKI-1 renal was > 100 µM throughout. For the same compound, the TGI in the assay with MALME-3M melanoma is > 100 µM.
In the case of `CC(=O)Oc1ccc2cc(Oc3ccc(Cl)c(Cl)c3)c(=O)oc2c1`, the TGI is > 100 µM in the assay with OVCAR-4 ovarian; 59.1 µM in the assay on LOX IMVI melanoma; 69.6 µM with K-562 leukemia; > 100 µM in the assay with SR leukemia; 79.2 µM in the assay with TK-10 renal; 53.3 µM with PC-3 prostate. Besides, the TGI is 80.6 µM with MCF7 breast; 51 µM in the assay with UO-31 renal; 50.6 µM in the assay with HOP-62 NSCLC; 39.9 µM in the assay on HCT-116 colon; 53.8 µM in the assay on HCT-15 colon; > 100 µM in the assay with IGROV1 ovarian. In addition, the TGI is 39.6 µM in the assay with HCC-2998 colon; 94.8 µM in the assay with A549 NSCLC; 58.7 µM in the assay on CAKI-1 renal; > 100 µM with MOLT-4 leukemia; 94.1 µM in the assay on MALME-3M melanoma.
As for `COc1ccc(OC)c(C2CCc3c(cnc4nc(N)nc(N)c34)C2)c1` (centres undefined), the TGI was 23.5 µM in the assay with OVCAR-4 ovarian; 15.5 µM in the assay with LOX IMVI melanoma; 16.1 µM with K-562 leukemia; 20.4 µM with SR leukemia; 28.7 µM in the assay with TK-10 renal; 27.5 µM in the assay on PC-3 prostate. Moreover, the TGI with SK-OV-3 ovarian was 31.2 µM; with MCF7 breast, 24.3 µM; in the assay with HOP-62 NSCLC it was 26.8 µM; in the assay with HCT-116 colon, 14.2 µM; in the assay on HCT-15 colon, 28.4 µM; in the assay on IGROV1 ovarian it was 17.5 µM. Also, the TGI in the assay on UACC-62 melanoma worked out at 12.3 µM; in the assay on COLO 205 colon it was 47.3 µM; with HCC-2998 colon, 44.6 µM; in the assay with A549 NSCLC, 15 µM; in the assay on CAKI-1 renal, 29.1 µM; in the assay on MOLT-4 leukemia, 22 µM. Moreover, the TGI in the assay on MALME-3M melanoma is 20.9 µM.
As for `COC(=O)c1ccccc1CC(Cc1ccc2c(c1)CCC2)C(=O)OC` (centres undefined), the TGI in the assay with OVCAR-4 ovarian, in the assay with LOX IMVI melanoma, in the assay on K-562 leukemia, in the assay with SR leukemia, in the assay with TK-10 renal and with PC-3 prostate was > 100 µM each time. Besides, the TGI in the assay on SK-OV-3 ovarian, with MCF7 breast, in the assay with UO-31 renal, in the assay with HOP-62 NSCLC, in the assay on HCT-116 colon and in the assay on HCT-15 colon was > 100 µM throughout. Besides, the TGI in the assay on IGROV1 ovarian, with COLO 205 colon, with HCC-2998 colon, in the assay on A549 NSCLC, in the assay with CAKI-1 renal and in the assay on MOLT-4 leukemia was > 100 µM in each case. The TGI with MALME-3M melanoma is > 100 µM.
Consider `O=c1cc(CSc2c(-c3ccccc3)c(=O)n(-c3ccccc3)c(=S)n2-c2ccccc2)[nH]c(=O)[nH]1`, for which the TGI in the assay on K-562 leukemia, in the assay with SR leukemia, in the assay with TK-10 renal, in the assay on PC-3 prostate, with SK-OV-3 ovarian and in the assay on MCF7 breast was > 100 µM each time. The TGI in the assay on UO-31 renal, in the assay with HOP-62 NSCLC, in the assay on HCT-116 colon, with HCT-15 colon, in the assay with IGROV1 ovarian and with UACC-62 melanoma was > 100 µM in each case. Besides, the TGI in the assay on COLO 205 colon, in the assay on HCC-2998 colon, in the assay on A549 NSCLC, with CAKI-1 renal and in the assay with MOLT-4 leukemia was > 100 µM in each case.
Turning to `COC(=O)c1ccccc1NC(=NC1CCCCCC1)NS(=O)(=O)c1ccc(C)cc1`, the TGI in the assay with OVCAR-4 ovarian, in the assay with LOX IMVI melanoma, in the assay on K-562 leukemia, in the assay with SR leukemia, in the assay on TK-10 renal and in the assay with PC-3 prostate was > 100 µM in each case. Further, the TGI with SK-OV-3 ovarian, in the assay on MCF7 breast, in the assay on UO-31 renal, in the assay on HOP-62 NSCLC, in the assay with HCT-116 colon and in the assay on HCT-15 colon was > 100 µM each time. Further, the TGI in the assay on IGROV1 ovarian, in the assay on UACC-62 melanoma, in the assay on COLO 205 colon, in the assay with HCC-2998 colon, in the assay with A549 NSCLC and with CAKI-1 renal was > 100 µM each time. Further, the TGI with MOLT-4 leukemia was > 100 µM.
